# Legend:
# large crabgrass [1] = assay: Test B pre-/postemergence herbicide test; format: in vivo, Digitaria sanguinalis; conditions: for Crabgrass, Large plant response rating: postemergence
# Procedure, shortened: (§1)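 Test chemicals in a non-phytotoxic solvent mixture with surfactant were applied preemergence to seeded species and postemergence to plants 2-18 cm tall (1- to 4-leaf stage); rice and barnyardgrass were also tested in a flooded paddy at the 2-leaf stage. Visual rating versus controls after 13-15 days in greenhouse, scale 0 (no effect) to 100 (complete control).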
# lambsquarters = assay: Test B pre-/postemergence herbicide test; format: in vivo, Chenopodium album; conditions: for Lambsquarters plant response rating: postemergence
# Procedure, shortened: as §1
# corn = assay: Test B pre-/postemergence herbicide test; format: in vivo, Zea mays; conditions: for Corn plant response rating: postemergence
# Procedure, shortened: as §1
# blackgrass = assay: Test B postemergence herbicide test; format: in vivo, Alopecurus myosuroides; conditions: postemergence
# Procedure, shortened: (§2)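 Plants grow to 1- to 4-leaf stage (2–18 cm) for postemergence spraying, or to 2-leaf stage for the paddy test. Formulated compound is applied. Greenhouse holding lasts 13–15 days. Response is scored visually relative to controls, 0 no effect to 100 complete control; a dash means no result.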
# wild oat = assay: Test B postemergence herbicide test; format: in vivo, Avena fatua; conditions: postemergence
# Procedure, shortened: (§3)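 After treating 2-leaf paddy plants or 2–18 cm postemergence plants (1 to 4 leaves) with formulated chemical, researchers kept them in a greenhouse for 13–15 days. Effects were judged visually versus controls: 0 indicates none, 100 total control.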
# cocklebur = assay: Test B pre-/postemergence herbicide test; format: in vivo, Xanthium strumarium; conditions: for Cocklebur plant response rating: postemergence
# Procedure, shortened: (§4)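 Species tested were Echinochloa crus-galli, Ipomoea coccinea, Xanthium strumarium and Oryza sativa, treated both before emergence and at the 1- to 4-leaf stage; rice and barnyardgrass were also tested under flooding at 2 leaves. Greenhouse incubation lasted 13–15 days before visual 0–100 scoring.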
# barnyardgrass [2] = assay: Test A pre-/postemergence herbicide test; format: in vivo, Echinochloa crus-galli
# Procedure, shortened: (§5)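 Plants are held in greenhouse about ten days after treatment, then compared with untreated controls and scored 0 (no effect) to 100 (complete control). Preemergence dosing is a directed soil spray on sown sandy loam; postemergence dosing is spray to runoff at 2–10 cm height.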
# giant foxtail [3] = assay: Test A pre-/postemergence herbicide test; format: in vivo, Setaria faberi
# Procedure, shortened: as §5
# large crabgrass [4] = assay: Test A pre-/postemergence herbicide test; format: in vivo, Digitaria sanguinalis
# Procedure, shortened: as §5
# pigweed = assay: Test B pre-/postemergence herbicide test; format: in vivo, Amaranthus retroflexus; conditions: for Pigweed plant response rating: postemergence
# Procedure, shortened: as §1
# velvetleaf [5] = assay: Test B pre-/postemergence herbicide test; format: in vivo, Abutilon theophrasti; conditions: for Velvetleaf plant response rating: postemergence
# Procedure, shortened: as §1
# morningglory [6] = assay: Test A pre-/postemergence herbicide test; format: in vivo, Ipomoea spp.
# Procedure, shortened: as §5
# [7] = test system: small flower umbrella sedge; assay: Test B flooded paddy test; format: in vivo, Cyperus difformis; conditions: 1000 g ai/ha, scale 0 to 100 (0 no effect, 100 complete control)
# Procedure, shortened: as §2
# Surinam grass = assay: Test B pre-/postemergence herbicide test; format: in vivo, Urochloa decumbens; conditions: for Surinam Grass plant response rating: postemergence
# Procedure, shortened: as §1
# ducksalad = assay: Test B flooded paddy test; format: in vivo, Heteranthera limosa; conditions: 1000 g ai/ha, scale 0 to 100 (0 no effect, 100 complete control)
# Procedure, shortened: as §2
# rice [8] = assay: Test B flooded paddy test; format: in vivo, Oryza sativa; conditions: 1000 g ai/ha, scale 0 to 100 (0 no effect, 100 complete control)
# Procedure, shortened: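 Paddy species grown to the 2-leaf stage under flooding; blackgrass sprayed postemergence at 2–18 cm (1- to 4-leaf stage). Plants kept in a greenhouse for 13 to 15 days, then visually rated against controls on 0 (no effect) to 100 (complete control).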
# velvetleaf [9] = assay: Test A pre-/postemergence herbicide test; format: in vivo, Abutilon theophrasti
# Procedure, shortened: as §5
# wheat = assay: Test B postemergence herbicide test; format: in vivo, Triticum aestivum; set-up: key to Wheat plant response rating: 0 = no effect, 100 = complete control; conditions: postemergence
# Procedure, shortened: as §3
# rice [10] = assay: Test B pre-/postemergence herbicide test; format: in vivo, Oryza sativa; conditions: 0 = no effect, 100 = complete control, preemergence
# Procedure, shortened: as §1
# redroot pigweed = assay: Test A pre-/postemergence herbicide test; format: in vivo, Amaranthus retroflexus
# Procedure, shortened: as §5
# morningglory [11] = assay: Test B pre-/postemergence herbicide test; format: in vivo, Ipomoea coccinea; conditions: for Morningglory plant response rating: postemergence
# Procedure, shortened: as §4
# barnyardgrass [12] = assay: Test B pre-/postemergence herbicide test; format: in vivo, Echinochloa crus-galli; conditions: for Barnyardgrass plant response rating: postemergence
# Procedure, shortened: as §4
# giant foxtail [13] = assay: Test B pre-/postemergence herbicide test; format: in vivo, Setaria faberi; conditions: for Foxtail, Giant plant response rating: postemergence
# Procedure, shortened: as §1
# barnyardgrass [14] = assay: Test B flooded paddy test; format: in vivo, Echinochloa crus-galli; conditions: 1000 g ai/ha, scale 0 to 100 (0 no effect, 100 complete control)
# Procedure, shortened: as §2
# [15] = 125 g ai/ha, 0 = no effect, 100 = complete control, preemergence
# [16] = 125 g ai/ha, visual rating, scale 0 (no effect) to 100 (complete control)
# [17] = 500 g ai/ha, visual rating, 0 = no effect, 100 = complete control, preemergence
# [18] = 500 g ai/ha, scale 0 to 100, 0 is no effect, 100 is complete control
# [19] = Postemergence, 500 g ai/ha, 0 to 100 scale, 0 no effect, 100 complete control
# [20] = Postemergence, 2000 g ai/ha, 0 to 100 scale, 0 no effect, 100 complete control
# [21] = Preemergence, 2000 g ai/ha, visual rating, 0 to 100 scale (0 no effect, 100 complete control)
# [22] = preemergence, 500 g ai/ha, visual injury, 0 to 100 scale (0 no effect, 100 complete control)
compound,measurement,setting,value
CCn1nc(C(C)(C)C)cc1C(=O)Nc1cncc(C(=O)NCC(F)(F)F)n1 [Compound 291],"Crabgrass, Large plant response rating (0 to 100 scale)",large crabgrass [1]; [15],0
same,"Crabgrass, Large plant response rating",large crabgrass [1]; [16],0
same,"Plant response rating, Crabgrass, Large",large crabgrass [1]; [17],0
same,"Crabgrass, Large plant response rating",large crabgrass [1]; [18],30
same,Lambsquarters plant response rating (0 to 100 scale),lambsquarters; [15],0
same,Lambsquarters plant response rating,lambsquarters; [16],20
same,"Plant response rating, Lambsquarters",lambsquarters; [17],0
same,Lambsquarters plant response rating,lambsquarters; [18],60
same,Corn plant response rating (0 to 100 scale),corn; [15],0
same,Corn plant response rating,corn; [16],0
same,"Plant response rating, Corn",corn; [17],0
same,Corn plant response rating,corn; [18],60
same,Blackgrass plant response rating,blackgrass; [16],0
same,Blackgrass plant response rating,blackgrass; [18],10
same,"Oat, Wild plant response rating",wild oat; [16],10
same,"Oat, Wild plant response rating",wild oat; [18],20
same,Cocklebur plant response rating (0 to 100 scale),cocklebur; [15],0
same,Cocklebur plant response rating,cocklebur; [16],0
same,"Plant response rating, Cocklebur",cocklebur; [17],0
same,Cocklebur plant response rating,cocklebur; [18],10
same,Barnyardgrass plant response rating,barnyardgrass [2]; [19],25
same,"Plant response rating, Barnyardgrass",barnyardgrass [2]; [20],40
same,Barnyardgrass plant response rating,barnyardgrass [2]; [21],25
same,Barnyardgrass plant response rating,barnyardgrass [2]; [22],0
same,"Foxtail, Giant plant response rating",giant foxtail [3]; [19],30
same,"Plant response rating, Foxtail, Giant",giant foxtail [3]; [20],75
same,"Foxtail, Giant plant response rating",giant foxtail [3]; [21],0
same,"Foxtail, Giant plant response rating",giant foxtail [3]; [22],0
same,"Crabgrass, Large plant response rating",large crabgrass [4]; [19],5
same,"Plant response rating, Crabgrass, Large",large crabgrass [4]; [20],25
same,"Crabgrass, Large plant response rating",large crabgrass [4]; [21],10
same,"Crabgrass, Large plant response rating",large crabgrass [4]; [22],0
same,Pigweed plant response rating (0 to 100 scale),pigweed; [15],0
same,Pigweed plant response rating,pigweed; [16],0
same,"Plant response rating, Pigweed",pigweed; [17],0
same,Pigweed plant response rating,pigweed; [18],30
same,Velvetleaf plant response rating,velvetleaf [5]; [16],0
same,"Plant response rating, Velvetleaf",velvetleaf [5]; [17],0
same,Velvetleaf plant response rating,velvetleaf [5]; [18],60
same,Morningglory plant response rating,morningglory [6]; [19],5
same,"Plant response rating, Morningglory",morningglory [6]; [20],10
same,Morningglory plant response rating,morningglory [6]; [21],0
same,Morningglory plant response rating,morningglory [6]; [22],0
same,"Sedge, Umbrella plant response rating",[7],0
same,Surinam Grass plant response rating (0 to 100 scale),Surinam grass; [15],0
same,Surinam Grass plant response rating,Surinam grass; [16],0
same,"Plant response rating, Surinam Grass",Surinam grass; [17],0
same,Surinam Grass plant response rating,Surinam grass; [18],60
same,Ducksalad plant response rating,ducksalad,0
same,Rice plant response rating,rice [8],0
same,Velvetleaf plant response rating,velvetleaf [9]; [19],5
same,"Plant response rating, Velvetleaf",velvetleaf [9]; [20],10
same,Velvetleaf plant response rating,velvetleaf [9]; [21],0
same,Velvetleaf plant response rating,velvetleaf [9]; [22],0
same,Wheat plant response rating,wheat; [16],0
same,Wheat plant response rating,wheat; [18],0
same,Rice plant response rating (0 to 100 scale),rice [10]; 125 g ai/ha,0
same,"Plant response rating, Rice","rice [10]; 500 g ai/ha, visual rating",0
same,Pigweed plant response rating,redroot pigweed; [19],20
same,"Plant response rating, Pigweed",redroot pigweed; [20],30
same,Pigweed plant response rating,redroot pigweed; [21],35
same,Pigweed plant response rating,redroot pigweed; [22],0
same,Morningglory plant response rating (0 to 100 scale),morningglory [11]; [15],0
same,Morningglory plant response rating,morningglory [11]; [16],0
same,"Plant response rating, Morningglory",morningglory [11]; [17],0
same,Morningglory plant response rating,morningglory [11]; [18],40
same,Barnyardgrass plant response rating (0 to 100 scale),barnyardgrass [12]; [15],0
same,Barnyardgrass plant response rating,barnyardgrass [12]; [16],0
same,"Plant response rating, Barnyardgrass",barnyardgrass [12]; [17],0
same,Barnyardgrass plant response rating,barnyardgrass [12]; [18],30
same,"Foxtail, Giant plant response rating (0 to 100 scale)",giant foxtail [13]; [15],0
same,"Foxtail, Giant plant response rating",giant foxtail [13]; [16],10
same,"Plant response rating, Foxtail, Giant",giant foxtail [13]; [17],0
same,"Foxtail, Giant plant response rating",giant foxtail [13]; [18],80
same,Barnyardgrass plant response rating,barnyardgrass [14],0

# From patent publication US20060069132A1, “Azolecarboxamide herbicides” (priority 2004, published 2006)
